For the test, the system named is Primary human T-cells. Kind of test: Primary Human T-Cell Proliferation Assay Stimulated with IL-2 (CellTiter-Glo). The format is cell-based. As to conditions: Homo sapiens, T-cell, primary human T-cell proliferation stimulated with IL-2; read-out: IC50, Example 42. The method, boiled down: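 Peripheral blood T-cells pre-activated with anti-CD3/anti-CD28 and IL-2 were washed free of IL-2, then cultured with compound plus IL-2 for 72 hours at 37° C, duplicate wells. Viability read as ATP by CellTiter-Glo luminescence; IC50 reported.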
In the case of `N#CCOc1ccc(Nc2nc(Nc3ccc(S(N)(=O)=O)cc3)ncc2F)cc1F` [Compound I-44, N2-(4-Aminosulfonylphenyl)-N4-(4-cyanomethoxy-3-fluorophenyl)-5-fluoro-2,4-pyrimidinediamine], the IC50 (as a rule, the concentration that gives 50% inhibition) worked out at 342 nM.
With `COc1cc(Nc2nc(Nc3cccc(S(N)(=O)=O)c3)ncc2F)ccc1OCC#N` [Compound I-46, N2-(3-Aminosulfonylphenyl)-N4-(4-cyanomethoxy-3-methoxyphenyl)-5-fluoro-2,4-pyrimidinediamine] the figure was 409 nM; with `COc1cc(Nc2nc(Nc3ccc(C)c(S(N)(=O)=O)c3)ncc2F)ccc1OCC#N` [Compound I-47, N2-(3-Aminosulfonyl-4-methylphenyl)-N4-(4-cyanomethoxy-3-methoxyphenyl)-5-fluoro-2,4-pyrimidinediamine], 551 nM; with `Cc1ccc(Nc2ncc(F)c(Nc3ccc(OCC#N)c(CO)c3)n2)cc1S(N)(=O)=O` [Compound I-51, N2-(3-Aminosulfonyl-4-methylphenyl)-N4-(4-cyanomethoxy-3-hydroxymethylphenyl)-5-fluoro-2,4-pyrimidinediamine], 2120 nM.
For `N#CCOc1ccc(Nc2nc(Nc3ccc(S(N)(=O)=O)cc3)ncc2F)cc1-c1ccn(CC#N)n1` [Compound I-52, N2-(4-Aminosulfonylphenyl)-N4-[4-cyanomethoxy-3-(1-cyanomethylpyrazol-3-yl)phenyl]-5-fluoro-2,4-pyrimidinediamine], the IC50 worked out at 5300 nM.
With `Cc1ccc(Nc2ncc(F)c(Nc3ccc(OCC(N)=O)c(Cl)c3)n2)cc1S(N)(=O)=O` [Compound I-99, N4-(4-Aminocarbonylmethoxy-3-chlorophenyl)-N2-(3-aminosulfonyl-4-methylphenyl)-5-fluoro-2,4-pyrimidinediamine], the IC50 turned out to be 148 nM.
Turning to `Cc1cnc(Nc2ccc(S(N)(=O)=O)cc2)nc1Nc1ccc(OCC(N)=O)cc1` [Compound I-108, N4-(4-Aminocarbonylmethoxyphenyl)-N2-(4-aminosulfonylphenyl)-5-methyl-2,4-pyrimidinediamine], the IC50 was 148 nM.
With `CN(C)C(=O)COc1ccc(Nc2nc(Nc3ccc(S(N)(=O)=O)cc3)ncc2F)cc1Cl` [Compound I-131, N2-(4-Aminosulfonylphenyl)-N4-(3-chloro-4-dimethylaminocarbonylmethoxyphenyl)-5-fluoro-2,4-pyrimidinediamine] the figure was 3780 nM.
Next, `CN(C)C(=O)COc1ccc(Nc2nc(Nc3cccc(S(N)(=O)=O)c3)ncc2F)cc1Cl` [Compound I-132, N2-(3-Aminosulfonylphenyl)-N4-(3-chloro-4-dimethylaminocarbonylmethoxyphenyl)-5-fluoro-2,4-pyrimidinediamine]: 464 nM; `Cc1cnc(Nc2ccc(S(N)(=O)=O)cc2)nc1Nc1ccc(OCC(=O)N(C)C)c(Cl)c1` [Compound I-134, N2-(4-Aminosulfonylphenyl)-N4-(3-chloro-4-dimethylaminocarbonylmethoxyphenyl)-5-methyl-2,4-pyrimidinediamine]: 510 nM.
Next, `Cc1cnc(Nc2ccc(S(N)(=O)=O)cc2)nc1Nc1ccc(OCC(=O)N(C)C)c(F)c1` [Compound I-137, N2-(4-Aminosulfonylphenyl)-N4-(4-dimethylaminocarbonylmethoxy-3-fluorophenyl)-5-methyl-2,4-pyrimidinediamine]: 1100 nM; `CNC(=O)COc1ccc(Nc2nc(Nc3ccc(S(N)(=O)=O)cc3)ncc2C)cc1Cl` [Compound I-149, N2-(4-Aminosulfonylphenyl)-N4-(3-chloro-4-methylaminocarbonylmethoxyphenyl)-5-methyl-2,4-pyrimidinediamine]: 197 nM.
Take `CNC(=O)COc1ccc(Nc2nc(Nc3cccc(S(N)(=O)=O)c3)ncc2C)cc1Cl` [Compound I-150, N2-(3-Aminosulfonylphenyl)-N4-(3-chloro-4-methylaminocarbonylmethoxyphenyl)-5-methyl-2,4-pyrimidinediamine]: the half-inhibitory concentration (IC50) turned out to be 68.1 nM.

The values are drawn from patent publication US11827628B2, “Compositions and methods for inhibition of the JAK pathway” (Rigel Pharmaceuticals, Inc., priority 2005, dated 2023).
